According to patent publication US12492188B2, “1H-benzo[D]imidazole derivatives as TLR9 inhibitors for the treatment of fibrosis” (BRISTOL-MYERS SQUIBB COMPANY, priority 2020, dated 2025):
Read-outs that look alike come from different tables or passages of the source.

Experiments:
Type in all cases: cell-based
human TLR7 = target: T1, human TLR7 (Homo sapiens, UniProt Q9NYK1); assay: TLR7 inhibition reporter assay (HEK-Blue cells, secreted embryonic alkaline phosphatase reporter); conditions: HEK-Blue cells overexpressing human TLR7, stimulated with gardiquimod 7.5 μM; read-out: TLR 7 IC50
T1 construct: host or cells: HEK-Blue cells (HEK293-derived reporter line)
T1 sequence (Q9NYK1 27-1049): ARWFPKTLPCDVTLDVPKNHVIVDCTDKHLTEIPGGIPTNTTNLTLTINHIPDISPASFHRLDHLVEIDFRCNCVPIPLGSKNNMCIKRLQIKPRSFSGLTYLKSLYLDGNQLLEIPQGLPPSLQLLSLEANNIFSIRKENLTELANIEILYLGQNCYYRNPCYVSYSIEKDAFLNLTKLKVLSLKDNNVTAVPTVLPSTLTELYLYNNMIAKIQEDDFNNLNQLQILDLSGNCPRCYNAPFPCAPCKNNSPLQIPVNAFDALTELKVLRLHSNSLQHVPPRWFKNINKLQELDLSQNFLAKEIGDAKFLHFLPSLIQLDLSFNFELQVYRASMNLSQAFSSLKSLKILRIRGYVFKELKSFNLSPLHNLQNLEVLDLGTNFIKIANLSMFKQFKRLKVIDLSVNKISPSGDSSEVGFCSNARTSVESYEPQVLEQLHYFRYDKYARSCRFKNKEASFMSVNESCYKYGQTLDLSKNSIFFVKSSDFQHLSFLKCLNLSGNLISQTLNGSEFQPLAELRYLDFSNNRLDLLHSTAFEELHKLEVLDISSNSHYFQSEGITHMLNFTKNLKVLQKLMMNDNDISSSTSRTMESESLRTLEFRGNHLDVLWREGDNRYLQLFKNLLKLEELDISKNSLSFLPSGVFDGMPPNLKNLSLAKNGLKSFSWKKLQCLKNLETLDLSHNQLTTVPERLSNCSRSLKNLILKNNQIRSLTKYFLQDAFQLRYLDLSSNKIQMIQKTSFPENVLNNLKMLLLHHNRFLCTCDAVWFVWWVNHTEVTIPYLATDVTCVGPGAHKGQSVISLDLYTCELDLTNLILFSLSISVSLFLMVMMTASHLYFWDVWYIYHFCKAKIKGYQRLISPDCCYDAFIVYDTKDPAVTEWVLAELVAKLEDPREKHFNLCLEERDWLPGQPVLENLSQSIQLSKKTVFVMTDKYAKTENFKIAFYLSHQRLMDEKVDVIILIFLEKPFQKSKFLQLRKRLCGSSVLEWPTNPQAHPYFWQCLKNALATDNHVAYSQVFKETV
Outline: (§1)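 Read-out is SEAP colour from HEK-Blue Detection medium after 22 h at 37 °C, converted to percent inhibition between agonist-plus-DMSO and reference-inhibitor wells. Receptor-overexpressing HEK-Blue cells received compound over 0.05 nM–50 μM for 30 min before agonist: gardiquimod 7.5 μM for TLR7, R848 15.9 μM for TLR8, ODN2006 5 nM for TLR9.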

human TLR9 = target: T2, human TLR9 (Homo sapiens, UniProt Q9NR96); assay: TLR9 inhibition reporter assay (HEK-Blue cells, secreted embryonic alkaline phosphatase reporter)
T2 construct: host or cells: HEK-Blue cells (HEK293-derived reporter line)
T2 sequence (Q9NR96 26-1032): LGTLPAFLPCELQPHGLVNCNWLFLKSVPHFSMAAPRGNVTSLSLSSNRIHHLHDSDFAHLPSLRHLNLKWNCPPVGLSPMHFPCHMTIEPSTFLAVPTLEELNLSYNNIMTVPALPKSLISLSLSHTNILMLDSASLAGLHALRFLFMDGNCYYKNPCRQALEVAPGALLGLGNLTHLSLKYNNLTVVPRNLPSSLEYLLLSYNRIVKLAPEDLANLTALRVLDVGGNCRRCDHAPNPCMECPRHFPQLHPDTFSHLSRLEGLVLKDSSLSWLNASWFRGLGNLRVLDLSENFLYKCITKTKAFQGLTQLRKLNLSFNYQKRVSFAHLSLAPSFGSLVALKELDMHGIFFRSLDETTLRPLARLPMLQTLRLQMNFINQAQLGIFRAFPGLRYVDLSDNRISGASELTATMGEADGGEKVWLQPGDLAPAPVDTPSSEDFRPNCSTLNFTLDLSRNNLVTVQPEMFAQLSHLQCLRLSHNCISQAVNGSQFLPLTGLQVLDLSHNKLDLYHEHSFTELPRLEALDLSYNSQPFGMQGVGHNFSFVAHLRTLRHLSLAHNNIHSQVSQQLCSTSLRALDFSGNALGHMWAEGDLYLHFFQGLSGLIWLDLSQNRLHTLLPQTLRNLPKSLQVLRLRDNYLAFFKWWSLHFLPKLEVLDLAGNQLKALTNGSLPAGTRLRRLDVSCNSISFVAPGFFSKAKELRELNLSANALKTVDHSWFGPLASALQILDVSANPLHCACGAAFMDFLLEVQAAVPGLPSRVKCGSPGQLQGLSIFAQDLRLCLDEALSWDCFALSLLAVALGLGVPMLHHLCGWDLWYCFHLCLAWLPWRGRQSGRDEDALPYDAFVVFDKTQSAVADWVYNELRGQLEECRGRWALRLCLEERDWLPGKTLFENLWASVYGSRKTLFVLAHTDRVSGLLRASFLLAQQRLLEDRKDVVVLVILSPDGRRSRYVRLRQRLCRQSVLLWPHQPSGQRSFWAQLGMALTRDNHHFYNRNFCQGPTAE
Outline: as §1

human TLR8 = target: T3, human TLR8 (Homo sapiens, UniProt Q9NR97); assay: TLR8 inhibition reporter assay (HEK-Blue cells, secreted embryonic alkaline phosphatase reporter); conditions: HEK-Blue cells overexpressing human TLR8, stimulated with R848 15.9 μM; read-out: TLR 8 IC50
T3 construct: host or cells: HEK-Blue cells (HEK293-derived reporter line)
T3 sequence (Q9NR97 27-1041): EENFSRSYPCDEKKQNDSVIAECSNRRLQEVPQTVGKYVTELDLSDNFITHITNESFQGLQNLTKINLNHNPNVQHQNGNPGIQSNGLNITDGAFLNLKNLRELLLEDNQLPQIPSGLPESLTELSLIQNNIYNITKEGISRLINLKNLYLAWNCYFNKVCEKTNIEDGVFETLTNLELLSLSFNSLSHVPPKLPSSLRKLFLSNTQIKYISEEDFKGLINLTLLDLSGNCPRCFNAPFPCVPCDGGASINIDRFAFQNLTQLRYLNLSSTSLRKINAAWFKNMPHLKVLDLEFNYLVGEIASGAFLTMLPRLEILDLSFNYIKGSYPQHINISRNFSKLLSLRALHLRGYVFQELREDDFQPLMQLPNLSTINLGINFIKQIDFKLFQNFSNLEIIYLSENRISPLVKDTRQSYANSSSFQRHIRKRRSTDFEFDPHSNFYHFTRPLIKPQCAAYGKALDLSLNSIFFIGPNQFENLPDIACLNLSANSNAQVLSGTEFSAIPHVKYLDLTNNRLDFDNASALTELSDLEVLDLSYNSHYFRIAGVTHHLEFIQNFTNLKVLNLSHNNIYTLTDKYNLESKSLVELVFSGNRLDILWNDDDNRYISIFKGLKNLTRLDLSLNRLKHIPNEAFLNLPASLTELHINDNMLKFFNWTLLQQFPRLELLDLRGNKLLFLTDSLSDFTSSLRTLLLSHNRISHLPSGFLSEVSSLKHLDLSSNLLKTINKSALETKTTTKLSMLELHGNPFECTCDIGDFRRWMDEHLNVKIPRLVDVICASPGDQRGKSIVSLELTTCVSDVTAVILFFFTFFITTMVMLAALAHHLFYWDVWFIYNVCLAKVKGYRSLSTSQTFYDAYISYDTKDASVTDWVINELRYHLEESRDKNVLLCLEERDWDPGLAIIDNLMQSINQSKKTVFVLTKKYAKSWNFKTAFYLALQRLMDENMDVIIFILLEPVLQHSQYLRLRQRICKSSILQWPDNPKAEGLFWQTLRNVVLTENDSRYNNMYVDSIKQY
Outline: as §1

[1] = HEK-Blue cells overexpressing human TLR9, stimulated with ODN2006 5 nM, read-out: TLR 9 IC50

Compound | IC50 (human TLR7) | IC50 (human TLR9) | IC50 (human TLR9; [1]) | IC50 (human TLR8)
Cn1c(-c2ccc(S(C)(=O)=O)cc2)nc2cc(C3CCN(C4CC5CCC(C4)N5C4COC4)CC3)cc(F)c21 (single isomer, unassigned) [Example 213, 7-fluoro-1-methyl-2-(4-(methylsulfonyl)phenyl)-5-(1-(8-(oxetan-3-yl)-8-azabicyclo[3.2.1]octan-3-yl)piperidin-4-yl)-1H-benzo[d]imidazole] | > 50000 nM | 340 nM | 335 nM | > 50000 nM
Cn1c(-c2ccc(S(C)(=O)=O)cc2)nc2cc(C3CCN(C4CC5CCC(C4)N5C4COC4)CC3)cc(F)c21 (single isomer, unassigned) [Example 214, 7-fluoro-1-methyl-2-(4-(methylsulfonyl)phenyl)-5-(1-(8-(oxetan-3-yl)-8-azabicyclo[3.2.1]octan-3-yl)piperidin-4-yl)-1H-benzo[d]imidazole] | > 50000 nM | 4700 nM | 4660 nM | > 50000 nM
Cn1c(-c2ccc(S(C)(=O)=O)cc2)nc2cc(C3CCN(C4CC5CCC(C4)N5C4CCC4)CC3)cc(F)c21 (single isomer, unassigned) [Example 215, 5-(1-(8-cyclobutyl-8-azabicyclo[3.2.1]octan-3-yl)piperidin-4-yl)-7-fluoro-1-methyl-2-(4-(methylsulfonyl)phenyl)-1H-benzo[d]imidazole] | 17000 nM | 70 nM | 70 nM | > 50000 nM
Cn1c(-c2ccc(S(C)(=O)=O)cc2)nc2cc(C3CCN(C4CC5CCC(C4)N5C4CCC4)CC3)cc(F)c21 (single isomer, unassigned) [Example 216, 5-(1-(8-cyclobutyl-8-azabicyclo[3.2.1]octan-3-yl)piperidin-4-yl)-7-fluoro-1-methyl-2-(4-(methylsulfonyl)phenyl)-1H-benzo[d]imidazole] | 23200 nM | 270 nM | 269 nM | > 50000 nM
CC(C)CN1C2CCC1CC(N1CCC(c3ccc4nc(-c5ccc(S(C)(=O)=O)cc5)[nH]c4c3F)CC1)C2 (single isomer, unassigned) [Example 219, 7-fluoro-6-(1-(8-isobutyl-8-azabicyclo[3.2.1]octan-3-yl)piperidin-4-yl)-2-(4-(methylsulfonyl)phenyl)-1H-benzo[d]imidazole] | 18500 nM | 65 nM | 65 nM | > 50000 nM
CC(C)CN1C2CCC1CC(N1CCC(c3ccc4nc(-c5ccc(S(C)(=O)=O)cc5)[nH]c4c3F)CC1)C2 (single isomer, unassigned) [Example 220, 7-fluoro-6-(1-(8-isobutyl-8-azabicyclo[3.2.1]octan-3-yl)piperidin-4-yl)-2-(4-(methylsulfonyl)phenyl)-1H-benzo[d]imidazole] | 41900 nM | 680 nM | 683 nM | > 50000 nM
CC(C)CN1C2CCC1CC(N1CCC(c3cc4c(cc3F)nc(-c3ccc(S(C)(=O)=O)cc3)n4C)CC1)C2 (single isomer, unassigned) [Example 228, 5-fluoro-6-(1-(8-isobutyl-8-azabicyclo[3.2.1]octan-3-yl)piperidin-4-yl)-1-methyl-2-(4-(methylsulfonyl)phenyl)-1H-benzo[d]imidazole] | 1400 nM | 69 nM | 69 nM | 16700 nM
CC(C)CN1C2CCC1CC(N1CCC(c3cc4c(cc3F)nc(-c3ccc(S(C)(=O)=O)cc3)n4C)CC1)C2 (single isomer, unassigned) [Example 229, 5-fluoro-6-(1-(8-isobutyl-8-azabicyclo[3.2.1]octan-3-yl)piperidin-4-yl)-1-methyl-2-(4-(methylsulfonyl)phenyl)-1H-benzo[d]imidazole] | 43200 nM | 95 nM | 95 nM | > 50000 nM
Cn1c(-c2ccc(S(C)(=O)=O)cc2)nc2cc(F)c(C3CCN(C4CC5CCC(C4)N5C4COC4)CC3)cc21 (single isomer, unassigned) [Example 234, 5-fluoro-1-methyl-2-(4-(methylsulfonyl)phenyl)-6-(1-(8-(oxetan-3-yl)-8-azabicyclo[3.2.1]octan-3-yl)piperidin-4-yl)-1H-benzo[d]imidazole] | > 50000 nM | 150 nM | 152 nM | > 50000 nM
Cn1c(-c2ccc(S(C)(=O)=O)cc2)nc2cc(F)c(C3CCN(C4CC5CCC(C4)N5C4COC4)CC3)cc21 (single isomer, unassigned) [Example 235, 5-fluoro-1-methyl-2-(4-(methylsulfonyl)phenyl)-6-(1-(8-(oxetan-3-yl)-8-azabicyclo[3.2.1]octan-3-yl)piperidin-4-yl)-1H-benzo[d]imidazole] | > 50000 nM | 1700 nM | 1730 nM | > 50000 nM
